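Five concentrations, 48 hours, 96-well plates. TGI: concentration producing complete growth inhibition.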
Legend:
Experiment in all cases: NCI tumour cell line growth inhibition, 48 h
786-0 renal = test system: 786-0 renal
A498 renal = test system: A498 renal
A549 NSCLC = test system: A549 NSCLC
CAKI-1 renal = test system: CAKI-1 renal
CCRF-CEM leukemia = test system: CCRF-CEM leukemia
COLO 205 colon = test system: COLO 205 colon
DLD-1 colon = test system: DLD-1 colon
DMS 114 small cell lung = test system: DMS 114 small cell lung
DMS 273 small cell lung = test system: DMS 273 small cell lung
EKVX NSCLC = test system: EKVX NSCLC
HCC-2998 colon = test system: HCC-2998 colon
HCT-116 colon = test system: HCT-116 colon
HCT-15 colon = test system: HCT-15 colon
HL-60(TB) leukemia = test system: HL-60(TB) leukemia
HOP-62 NSCLC = test system: HOP-62 NSCLC
HOP-92 NSCLC = test system: HOP-92 NSCLC
HT29 colon = test system: HT29 colon
IGROV1 ovarian = test system: IGROV1 ovarian
K-562 leukemia = test system: K-562 leukemia
KM12 colon = test system: KM12 colon
LOX IMVI melanoma = test system: LOX IMVI melanoma
LXFL 529 NSCLC = test system: LXFL 529 NSCLC
M14 melanoma = test system: M14 melanoma
M19-MEL melanoma = test system: M19-MEL melanoma
MALME-3M melanoma = test system: MALME-3M melanoma
MOLT-4 leukemia = test system: MOLT-4 leukemia
NCI-H23 lung = test system: NCI-H23 lung
NCI-H460 lung = test system: NCI-H460 lung
NCI-H522 lung = test system: NCI-H522 lung
OVCAR-3 ovarian = test system: OVCAR-3 ovarian
OVCAR-4 ovarian = test system: OVCAR-4 ovarian
OVCAR-8 ovarian = test system: OVCAR-8 ovarian
RPMI-8226 leukemia = test system: RPMI-8226 leukemia
RXF 393 renal = test system: RXF 393 renal
SF-268 CNS = test system: SF-268 CNS
SF-295 CNS = test system: SF-295 CNS
SF-539 CNS = test system: SF-539 CNS
SK-MEL-2 melanoma = test system: SK-MEL-2 melanoma
SK-MEL-28 melanoma = test system: SK-MEL-28 melanoma
SK-MEL-5 melanoma = test system: SK-MEL-5 melanoma
SK-OV-3 ovarian = test system: SK-OV-3 ovarian
SN12C renal = test system: SN12C renal
SNB-19 CNS = test system: SNB-19 CNS
SNB-75 CNS = test system: SNB-75 CNS
SNB-78 CNS = test system: SNB-78 CNS
SW-620 colon = test system: SW-620 colon
TK-10 renal = test system: TK-10 renal
U251 CNS = test system: U251 CNS
UACC-257 melanoma = test system: UACC-257 melanoma
UACC-62 melanoma = test system: UACC-62 melanoma
UO-31 renal = test system: UO-31 renal
XF 498 CNS = test system: XF 498 CNS
ACHN renal = test system: ACHN renal
KM20L2 colon = test system: KM20L2 colon
NCI-H226 lung = test system: NCI-H226 lung
OVCAR-5 ovarian = test system: OVCAR-5 ovarian
SR leukemia = test system: SR leukemia

Measured: TGI

O=C1OC(O)c2cc3c(cc21)OCO3 (configuration not stated)
not listed: ACHN renal | KM20L2 colon | NCI-H226 lung | OVCAR-5 ovarian | SR leukemia
> 100 µM: all other assays above

O=S1(=O)OCCOS(=O)(=O)C1(Br)Cc1ccccc1
not listed: CAKI-1 renal | KM12 colon
> 100 µM: all other assays above

— PubChem BioAssay (NCI)
